Laboratory results from ChEMBL document CHEMBL1122235, “4'-Methylangelicins: new potential agents for the photochemotherapy of psoriasis” (J Med Chem, 1983).
In brackets after ≈: the same amount, converted by molar mass.

How the values were obtained:
[1] = Frequency of binding sites i.e., number of ligands bound per nucleotide
[2] = Rate constant of the photoreaction between compound and DNA.; assay type: ADME
[3] = In vivo inhibition of epidermal DNA synthesis in mouse after oral administration relativ to that of 8-MOP; assay type: functional
[4] = Solubility in water was determined; assay type: physicochemical
[5] = Number of nucleotides occluded by a bound furocoumarin molecule
[6] = system: Nucleic Acid; assay: Association constant to an isolated site calf thymus DNA; assay type: nucleic-acid assay; settings: Bos taurus
[7] = system: Mus musculus; assay: In vivo inhibition of epidermal DNA synthesis in mouse after oral administration; assay type: functional
[8] = In vivo inhibition of epidermal DNA synthesis in mouse after topical application relative to that of 8-MOP; assay type: functional
[9] = system: Mus musculus; assay: In vivo inhibition of epidermal DNA synthesis in mouse after topical application; assay type: functional
[10] = Partition coefficient between octanol and water; assay type: physicochemical

SMILES | 1/n [1] | Rate constant [2] | Solubility ([4]; buffer) | Solubility ([4]; water, read-out: Solubility) | Number [5] | Binding constant [6] | Partition coefficient [10] | Relative activity [3] | Inhibition [7] | Relative activity [8] | Inhibition [9]
Cc1coc2ccc3ccc(=O)oc3c12 | 0.065 | 0.037 min⁻¹ | 0.00007 M l-1 | 14 µg/mL (≈ 69.9 µM) | 15.4 | 975 | 240 | 0.94 | 36.75% | 0.95 | 58.43%
O=c1ccc2ccc3occc3c2o1 [ANGELICIN] | 0.063 | 0.011 min⁻¹ | 0.000105 M l-1 | – | 15.9 | 560 | 120 | 0.71 | 28% | 0.28 | 17.5%
Cc1cc(=O)oc2c1ccc1occ(C)c12 | 0.08 | 0.073 min⁻¹ | 0.000012 M l-1 | 2.6 µg/mL (≈ 12.1 µM) | 12.5 | 6600 | 1190 | 0.66 | 25.82% | 0.72 | 44.27%
Cc1cc2occ(C)c2c2oc(=O)ccc12 | 0.08 | 0.059 min⁻¹ | 0.000022 M l-1 | 4.7 µg/mL (≈ 21.9 µM) | 12.5 | 5400 | 1041 | 1.36 | 53.33% | 0.95 | 58.41%
COc1c2occc2cc2ccc(=O)oc12 [METHOXSALEN] | 0.128 | 0.031 min⁻¹ | – | – | 7.81 | 736 | – | 1 | 39.1% | 1 | 61%

Further lines, with some results ahead:

1/n [1] | Rate constant [2] | Solubility ([4]; buffer) | Solubility ([4]; water, read-out: Solubility) | Number [5] | Binding constant [6] | Partition coefficient [10] | SMILES | Relative activity [3] | Inhibition [7] | Relative activity [8] | Inhibition [9]
– | 0.034 min⁻¹ | – | – | – | – | – | Cc1cc2occc2c2oc(=O)ccc12 | – | – | – | –
– | 0.021 min⁻¹ | – | – | – | – | – | Cc1cc2c(ccc3ccc(=O)oc32)o1 | – | – | – | –
– | 0.016 min⁻¹ | – | – | – | – | – | Cc1cc(=O)oc2c1ccc1occc12 | – | – | – | –
